In this assay the test system is Wnt signaling. Put plainly: TopFlash reporter gene bioassay in SW480 cells. Type of assay: cell-based. Conditions: read-out: RGA, IC50 (μM) TopF. A general note: Reporter assays use an easily measured gene product as a stand-in for the process of interest.
Setting [1] is: Homo sapiens, SW480, TopFlash reporter gene assay, inhibition of Wnt signaling.
[2] abbreviates: TopFlash reporter gene assay, inhibition of Wnt signaling.

Like-named read-outs stand apart in the source and are kept apart here.

By IC50 is commonly meant the concentration that inhibits the measured activity by half.

As for `C=CCOc1ccc(CN2C[C@H]3N(C(=O)CN(CC=C)N3C(=O)NCc3ccccc3)[C@@H](Cc3ccc(O)cc3)C2=O)cc1` [compound 123], under setting [1], the IC50 was determined as 1.55 ± 0.21 µM.

With `C=CCN1CC(=O)N2[C@@H](Cc3ccc(O)cc3)C(=O)N(Cc3cccc4c3OC(F)(F)O4)C[C@@H]2N1C(=O)NCc1ccccc1` [compound 124], the IC50 under setting [1] is 1.56 ± 0.33 µM.

For the compound `C=CCN1CC(=O)N2[C@@H](Cc3ccc(O)cc3)C(=O)N(Cc3cccnc3Br)C[C@@H]2N1C(=O)NCc1ccccc1` [compound 125], the IC50 under setting [1] was 1.57 ± 0.29 µM.

In the case of `C=CCN1CC(=O)N2[C@@H](Cc3ccc(O)cc3)C(=O)N(Cc3cccc(-c4cccc(C#N)c4)c3)C[C@@H]2N1C(=O)NCc1ccccc1` [compound 126], under setting [1], the IC50 is 1.58 ± 0.27 µM.

`C=CCN1CC(=O)N2[C@@H](Cc3ccc(O)cc3)C(=O)N(Cc3cccc(-c4ccccc4OC)c3)C[C@@H]2N1C(=O)NCc1ccccc1` [compound 127]: under setting [1], the IC50 worked out at 1.61 ± 0.31 µM.

For `C=CCN1CC(=O)N2[C@@H](Cc3ccc(O)cc3)C(=O)N(Cc3ccccc3N(C)Cc3ccccc3)C[C@@H]2N1C(=O)NCc1ccccc1` [compound 128], the IC50 under setting [1] worked out at 1.61 ± 0.59 µM.

On to `C=CCN1CC(=O)N2[C@@H](Cc3ccc(O)cc3)C(=O)N(Cc3ccc(OC)c(Br)c3)C[C@@H]2N1C(=O)NCc1ccccc1` [compound 129], for which, under setting [1], the IC50 came to 1.64 ± 0.27 µM.

Turning to `C=CCN1CC(=O)N2[C@@H](Cc3ccc(O)cc3)C(=O)N(Cc3cccc(C(=O)NCCC4=CCCCC4)c3)C[C@@H]2N1C(=O)NCc1ccccc1` [compound 130], the IC50 under setting [1] is 1.66 ± 0.18 µM.

Regarding `C=CCN1CC(=O)N2[C@@H](Cc3ccc(O)cc3)C(=O)N(Cc3cccc(C(=O)OC)c3[N+](=O)[O-])C[C@@H]2N1C(=O)NCc1ccccc1` [compound 131], the IC50 under setting [1] stood at 1.66 ± 0.27 µM.

On to `C=CCN1CC(=O)N2[C@@H](Cc3ccc(O)cc3)C(=O)N(Cc3cccc(C#N)c3)C[C@@H]2N1C(=O)NCc1ccccc1` [compound 132], for which the IC50 under setting [1] was 1.71 ± 0.28 µM.

As for `C=CCN1CC(=O)N2[C@@H](Cc3ccc(O)cc3)C(=O)N(Cc3cccc(-c4nccs4)c3)C[C@@H]2N1C(=O)NCc1ccccc1` [compound 133], the IC50 under setting [2] worked out at 1.73 ± 0.22 µM.

Regarding `C=CCN1CC(=O)N2[C@@H](Cc3ccc(O)cc3)C(=O)N(Cc3cccc(-c4ccc(OC)cc4)n3)C[C@@H]2N1C(=O)NCc1ccccc1` [compound 134], the IC50 under setting [1] is 1.73 ± 0.35 µM.

As for `C=CCN1CC(=O)N2[C@@H](Cc3ccc(O)cc3)C(=O)N(Cc3cccc(C(=O)NCCCOCCCC)c3)C[C@@H]2N1C(=O)NCc1ccccc1` [compound 135], the IC50 under setting [1] was 1.77 ± 0.15 µM.

In the case of `C=CCOc1ccc(CN2C[C@H]3N(C(=O)CN(CC=C)N3C(=O)NCc3ccccc3)[C@@H](Cc3ccc(OP(=O)(O)O)cc3)C2=O)cc1` [compound 136], under “Homo sapiens, SW480”, the IC50 amounted to 1.83 ± 0.32 µM.

In the case of `C=CCN1CC(=O)N2[C@@H](Cc3ccc(O)cc3)C(=O)N(Cc3cccc(-c4cccc(OC)c4)c3)C[C@@H]2N1C(=O)NCc1ccccc1` [compound 137], the IC50 under setting [1] was 1.86 ± 0.3 µM.

Regarding `C=CCN1CC(=O)N2[C@@H](Cc3ccc(O)cc3)C(=O)N(Cc3csc4cc(NCc5ccccc5)ccc34)C[C@@H]2N1C(=O)NCc1ccccc1` [compound 138], the IC50 under setting [2] came out at 1.86 ± 0.38 µM.

Turning to `C=CCN1CC(=O)N2[C@@H](Cc3ccc(O)cc3)C(=O)N(Cc3cccc(OC)c3OC3CCCC3)C[C@@H]2N1C(=O)NCc1ccccc1` [compound 139], the IC50 under setting [1] came out at 1.89 ± 0.38 µM.

For the compound `C=CCN1CC(=O)N2[C@@H](Cc3ccc(O)cc3)C(=O)N(Cc3cccc(-c4ccc(OC)cc4)c3)C[C@@H]2N1C(=O)NCc1ccccc1` [compound 140], the IC50 under setting [1] was 1.91 ± 0.24 µM.

On to `C=CCN1CC(=O)N2[C@@H](Cc3ccc(O)cc3)C(=O)N(Cc3cccc(-c4ccc(F)cc4)n3)C[C@@H]2N1C(=O)NCc1ccccc1` [compound 141], for which, under setting [1], the IC50 worked out at 1.91 ± 0.28 µM.

For `C=CCN1CC(=O)N2[C@@H](Cc3ccc(O)cc3)C(=O)N(Cc3csc4cc(NC(C)=O)ccc34)C[C@@H]2N1C(=O)NCc1ccccc1` [compound 142], the IC50 under setting [1] was 1.92 ± 0.28 µM.

For the compound `C=CCOc1c(CN2C[C@H]3N(C(=O)CN(CC=C)N3C(=O)NCc3ccccc3)[C@@H](Cc3ccc(O)cc3)C2=O)cccc1C(C)(C)C` [compound 143], the IC50 under setting [1] was 1.93 ± 0.18 µM.

The values are drawn from patent US8080657B2, “Compounds of reverse turn mimetics and the use thereof” (Choongwae Pharma Corporation, priority 2008, dated 2011).
